Here are results for four compounds from ChEMBL document CHEMBL1240302, “Small-molecule interaction with a five-guanine-tract G-quadruplex structure from the human MYC promoter” (Nat Chem Biol, 2005).

For the assay, the system named is Nucleic Acid. Kind of assay: Binding affinity to human c-MYC Pu24I G-quadruplex structure assessed as stabilization of G-quadruplex by NMR spectroscopy. The class given is nucleic-acid assay.

Activity calls are given as the source filed them. No cut-off for these calls is given here.

Turning to `CN1CCN(c2ccc3[nH]c(-c4ccc5[nH]c(-c6ccc(O)cc6)nc5c4)nc3c2)CC1`, the result was Active.
As for `C[n+]1ccc(-c2c3nc(c(-c4cc[n+](C)cc4)c4ccc([nH]4)c(-c4cc[n+](C)cc4)c4ccc([nH]4)c(-c4cc[n+](C)cc4)c4nc2C=C4)C=C3)cc1`, the result was Active.
Under `COc1cccc2c1C(=O)c1c(O)c3c(c(O)c1C2=O)C[C@@](O)(C(C)=O)C[C@@H]3O[C@H]1C[C@H](N)[C@H](O)[C@H](C)O1` stands “Active”; under `CC[n+]1c(-c2ccccc2)c2cc(N)ccc2c2ccc(N)cc21`, “Active”.
